Data from US5789625A, “Metal-ligand complex catalyzed processes” (priority 1996, dated 1998).

Columns and labels:
[1] = cited from earlier work
[2] = Extraction experiment: partitioning of base from butyraldehyde to equimolar aqueous H3PO3 (Example 5, Table A); type: physicochemical
Description: The following series of experiments were performed in order to determine the relationship of the pKa of a base to the effectiveness of the base to remain in the organic phase upon contact with an equimolar aqueous acid solution. In all cases the experiments were performed under nitrogen, unless otherwise specified.
Solutions were prepared by dissolving a quantity of acid or base in solvent so that the final concentration was equal to 0.1 moles/liter. The 1×10^-3 moles/liter solutions were prepared by taking an aliquot of the 0.1 moles/liter solution and diluting to the specified concentration. The 1×10^-5 moles/liter solutions were prepared in the same manner as the 1×10^-3 moles/liter solution with the modification of using an aliquot of the 1×10^-3 moles/liter solution in place of the 0.1 moles/liter solution.
In each extraction experiment, 5 milliliters of base solution in butyraldehyde was added to a clean, dry vial. To this vial was added 5 milliliters of equimolar H3 PO3 solution. The resulting mixture was rapidly shaken for several minutes and then allowed to phase separate. A 1 milliliter aliquot of the aqueous layer was then transferred to a clean, dry vial. To this vial was added 1 milliliter of pH 7 sodium/potassium phosphate buffer and 0.1 milliliter of Tergitol® 15-S-9 surfactant. The solution was shaken vigorously, and an aliquot was analyzed by high performance liquid chromatography for base content. The amount of base was then compared with a dichloromethane solution at the initial concentration. The partition coefficients calculated are for partitioning of the base from the organic phase to the water phase and is defined as K=amount of base in the water phase/amount of base in the organic phase.

[3] = Stability of Ligand F in butyraldehyde solution containing rhodium, by HPLC (Examples 2-4); type: physicochemical; settings: for concentration of Ligand F remaining: 0.017 grams phosphorous acid added to 12 gram solution, start 0.39; for change in concentration of Ligand F: no added acid or benzimidazole, 200 ppm rhodium, 0.39 wt% Ligand F in butyraldehyde
[4] = base 1 × 10^-3 moles/liter in butyraldehyde, H3PO3 1 × 10^-3 moles/liter
[5] = base 1 × 10^-5 moles/liter in butyraldehyde, H3PO3 1 × 10^-5 moles/liter

| K (amount of base in the water phase/amount of base in the organic phase) [2, 4] | K (amount of base in the water phase/amount of base in the organic phase) [2, 5] | Structure (SMILES) | pKa of base [1] | concentration of Ligand F remaining ([3]; 24 hours) | concentration of Ligand F remaining ([3]; 72 hours) | change in concentration of Ligand F ([3]; 24 hours) | change in concentration of Ligand F ([3]; 72 hours) |
| --- | --- | --- | --- | --- | --- | --- | --- |
|  |  | O=C1CCCN1Cc1ccccc1 [1-benzyl-2-pyrrolidinone] | -0.7 |  |  |  |  |
| 0.22 | 0.30 | c1ccc(Cc2ccccn2)cc1 [2-benzylpyridine] |  |  |  |  |  |
| 0.93 | 0.00 | CC(=O)c1cccnc1 [3-acetylpyridine] | 3.3 |  |  |  |  |
|  |  | CC(C)(C)c1cc(-c2cc(C(C)(C)C)cc(C(C)(C)C)c2Op2oc3ccccc3c3ccccc3o2)c(Op2oc3ccccc3c3ccccc3o2)c(C(C)(C)C)c1 [Ligand F] |  | 0.12 percent by weight | 0.04 percent by weight | No change | No change |
